Assay results from ChEMBL document CHEMBL3507680, “University of Dundee, Gates Library screen for HepG2 cell viability”.

assay: Human HepG2 cell viability assay in 384 well format; type: toxicity, cell-based; design: dose 125 nL, time 70.5 hour; cytotoxicity at 70.5 h: concentration not given beside the values; settings: HepG2 cells, read-out: Inhibition

| Structure (SMILES) | cytotoxicity at 70.5 h |
| --- | --- |
| Cn1cc(CN2CC[C@H]3O[C@@H](COCc4cccnc4)CC[C@H]32)cn1 | -12% |
| COc1ccc(CC(=O)NCCCc2nnc3nc(C)cc(C)n23)cc1 | -10.1% |
| Cc1ccc(-c2ccc(C(=O)NCCS(N)(=O)=O)c(F)c2)cc1 | -3.69% |
| Cc1nn(C)c(C)c1CN(C)C(=O)C1COc2ccccc2C1 (stereo not drawn) | -3.84% |
| Cc1cnn(-c2cncc(C(N)=O)c2)c1 | -5.78% |
| CN(Cc1ccc(Cl)c(F)c1)C(=O)CCc1ccncc1 | -6.42% |
| CC(c1nccs1)N(C)S(=O)(=O)NCc1ccccc1 (stereo not drawn) | 25.4% |
| Cc1cccc2cc(C(=O)N3CCC(F)(F)CC3)n(C)c12 | 32.7% |
| Cn1ccnc1CN1CCc2onc(COCC3CC3)c2C1 | -4.62% |
| NC(=O)C1CCN(c2ncc(-c3cnccn3)c([C@H]3CCCO3)n2)CC1 | -11.5% |
| Cc1cc(NC(=O)c2ccc(N3CCOCC3)c(C)c2)[nH]n1 | 8.26% |
| CN(C)Cc1cccc(-c2cccnc2C(=O)NCC2CC2)c1 | -2.77% |
| Cc1ccc(C(=O)N2CCC3(CCN(c4ccsc4)C3=O)C2)cn1 (stereo not drawn) | 6.79% |
| Cc1ccc(OCc2cccc(C(=O)N(C)CCC#N)c2)cn1 | 0.941% |
| CS(=O)(=O)N1C[C@@H]2CC[C@H](C1)N(C(=O)CCc1ccsc1)C2 | -2.59% |
| Cc1nnc(CCNC(=O)C(c2ccc(F)cc2)N(C)C)[nH]1 (stereo not drawn) | 25% |
| CN1CSC[C@H]1C(=O)N1CCC(Cc2ccccc2F)CC1 | -4.33% |
| Cc1cc(C(F)(F)F)nn1CCCNC(=O)C1CCCC1 | -1.45% |
| COC(=O)CCC(=O)N1CCc2nc(C(=O)N(C)C)sc2CC1 | -10.1% |
| O=C(c1cccnc1)N1CCC[C@]2(C[C@H](Oc3ncccc3F)CO2)C1 | 0.397% |
| CCN(CC)S(=O)(=O)N1C[C@@H](c2ccccc2)[C@H]2[C@H]1CCCCCN2C | -1.32% |
| CSCC(=O)N1CCc2nc(C)nc(NCc3ccccc3)c2CC1 | -5.43% |

| Structure (SMILES) | cytotoxicity at 70.5 h |
| --- | --- |
| CN1CCCC(C(=O)N2CCC(Oc3ncccn3)CC2)C1 (stereo not drawn) | -4.47% |
| O=c1c(CN2CCCCCC2)coc(O)c1CN1CCOCC1 | -2.1% |
| COC(=O)[C@H](C)NC(=O)c1cnc(Cc2ccc(F)cc2)s1 | -0.425% |
| NC(=O)c1ccc(OCCC(=O)NC2CCc3c(F)cccc32)cc1 (stereo not drawn) | 21.4% |
| COc1ccc2nc(C)c(C(=O)NCCN3CCS(=O)(=O)CC3)cc2c1 | -1.47% |
| O=C(C1CC(F)(F)C1)N1C[C@@H]2CN(Cc3ccoc3)CCO[C@@H]2C1 | -3.45% |
| O=C(NCCCn1nc2ccccn2c1=O)NC(C1CC1)C1CC1 | -16.5% |
| Cn1cccc1C(O)CNS(=O)(=O)c1ccccc1F (stereo not drawn) | 3.03% |
| CCS(=O)(=O)N1C[C@H]2CN(c3cnn(C)c3)C(=O)[C@H]2C1 | -5.61% |
| CC(C)c1nnc(NCc2ccsc2)o1 | 3.33% |
| COc1cc(C#N)ccc1OCCN1CCC(n2ccnc2)CC1 | -7.5% |
| CC(C)Cn1cc(NC(=O)N2CCOC(c3ccccc3)C2)cn1 (stereo not drawn) | -4.35% |
| CCc1ccc(C(=O)NCc2ccnc(N3CCN(C)CC3)c2)o1 | -7.44% |
| CN1CCOC(CNC(=O)C2(c3cccc(C(F)(F)F)c3)CCCC2)C1 (stereo not drawn) | 6.99% |
| COCC(=O)N1C[C@@H](OCc2cccnc2)[C@H]2OCCC[C@@H]21 | 14.3% |
| CN1C[C@@H](n2cnc(-c3ccccc3)c2-c2ncc[nH]2)C[C@H]1C(=O)O | 5.36% |
| CCN1CCN(CCCNC(=O)c2cc3ccc(C)cc3nc2C)CC1 | -2.81% |
| CS(=O)(=O)CCC(=O)NC1(c2cccc(Br)c2)CC1 | -8.28% |
| Cc1nc(CNC(=O)C(C)(C)c2ccc(F)cc2)no1 | 0.937% |
| Cc1cc(C(=O)CN2CCN(c3cnccn3)CC2)c(C)n1C(C)C | -10.7% |
| Cc1cc(NC2CC3(CCN(Cc4cscn4)C3)C2)ncn1 (stereo not drawn) | -6.43% |
